Measurements from patent publication US8609724B2, “Method of treating cancer using dichloroacetate” (priority 2005, dated 2013).
“Also recorded” adds a separate entry of the source.

Tests used:
[1] = test system: cancer cells; assay: Free cytosolic calcium (fluo-3, confocal); type: cell-based, human; settings: treated vs control cells
[2] = test system: NFAT; assay: NFAT and Kv1.5 confocal imaging; type: cell-based, human; settings: A549 cells
Protocol: Imaging was performed using a Zeiss LSM 510 confocal microscope as described. Apoptag apoptosis detection kit (TUNEL stain, Serologicals, Norcross, Ga.) and the proliferating cell nuclear antigen (PCNA) antibody (DAKO, Carpinteria, Calif.) were used as per manufacturer's instructions on both formaldehyde fixed cells and paraffin-embedded tissue sections after antigen retrieval. Nuclear staining was made using 4′,6′-diamidino-2-phenylindole dihydrochloride (DAPI, 300 nM; Molecular Probes) in fixed tissue or cells as previously described Apoalert Annexin V kit (Clontech, Palo Alto, Calif.), cytochrome c antibody (Pharmingen, San Diego, Calif.), Apoptosis inducing factor (Santa Cruz Calif. USA) NFAT and Kv1.5 (Sigma) and mitotracker red (500 nM, Molecular Probes) were used as described by the company instructions. Mitochondrial membrane potential (ΔΨm) was studied in live cancer cultured cells, using tetramethylrhodamine methyl-ester perchlorate (TMRM) (20 nmol/L) for 30 minutes (37° C.) and Hoechst (1.0 umol/L) nuclear staining for 10 minutes (Molecular Probes, Canada).

OO [H2O2]
free cytosolic calcium concentration [1]: decreases the intracellular Ca++ levels; also recorded: Control cells had more calcium than both DCA and H2O2 treated cells | Kv1.5 expression (confocal immunostaining) [2]: increased Kv1.5 expression | NFAT activation (nuclear localization) [2]: blocked the activation of NFAT
